# PubChem BioAssay (NCI)
#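 Compound exposure: 48 hours, 5 concentrations, 96-well plates. At the GI50, growth is halved. TGI: concentration producing complete growth inhibition.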
# Assays:
# Test in all cases: DTP human tumour cell line panel, 48 h
# BT-549 breast = tested on: BT-549 breast
# SF-539 CNS = tested on: SF-539 CNS
# RPMI-8226 leukemia = tested on: RPMI-8226 leukemia
# IGROV1 ovarian = tested on: IGROV1 ovarian
# A498 renal = tested on: A498 renal
# MOLT-4 leukemia = tested on: MOLT-4 leukemia
# DU-145 prostate = tested on: DU-145 prostate
# MALME-3M melanoma = tested on: MALME-3M melanoma
# HL-60(TB) leukemia = tested on: HL-60(TB) leukemia
# TK-10 renal = tested on: TK-10 renal
# HCC-2998 colon = tested on: HCC-2998 colon
# HCT-116 colon = tested on: HCT-116 colon
# SN12C renal = tested on: SN12C renal
# NCI-H226 lung = tested on: NCI-H226 lung
# RXF 393 renal = tested on: RXF 393 renal
# NCI-H522 lung = tested on: NCI-H522 lung
# UACC-62 melanoma = tested on: UACC-62 melanoma
# A549 NSCLC = tested on: A549 NSCLC
# 786-0 renal = tested on: 786-0 renal
# SW-620 colon = tested on: SW-620 colon
# SK-OV-3 ovarian = tested on: SK-OV-3 ovarian
# MCF7 breast = tested on: MCF7 breast
# HOP-92 NSCLC = tested on: HOP-92 NSCLC
# HOP-62 NSCLC = tested on: HOP-62 NSCLC
# SNB-19 CNS = tested on: SNB-19 CNS
# SF-268 CNS = tested on: SF-268 CNS
# NCI/ADR-RES ovarian = tested on: NCI/ADR-RES ovarian
# CAKI-1 renal = tested on: CAKI-1 renal
# MDA-MB-468 breast = tested on: MDA-MB-468 breast
# SR leukemia = tested on: SR leukemia
# KM12 colon = tested on: KM12 colon
# CCRF-CEM leukemia = tested on: CCRF-CEM leukemia
# OVCAR-3 ovarian = tested on: OVCAR-3 ovarian
# EKVX NSCLC = tested on: EKVX NSCLC
# NCI-H23 lung = tested on: NCI-H23 lung
# OVCAR-5 ovarian = tested on: OVCAR-5 ovarian
# HT29 colon = tested on: HT29 colon
# UACC-257 melanoma = tested on: UACC-257 melanoma
# HS 578T breast = tested on: HS 578T breast
# U251 CNS = tested on: U251 CNS
# LOX IMVI melanoma = tested on: LOX IMVI melanoma
# SF-295 CNS = tested on: SF-295 CNS
# NCI-H460 lung = tested on: NCI-H460 lung
# COLO 205 colon = tested on: COLO 205 colon
# M14 melanoma = tested on: M14 melanoma
# SK-MEL-5 melanoma = tested on: SK-MEL-5 melanoma
# OVCAR-8 ovarian = tested on: OVCAR-8 ovarian
# UO-31 renal = tested on: UO-31 renal
# ACHN renal = tested on: ACHN renal
# PC-3 prostate = tested on: PC-3 prostate
# K-562 leukemia = tested on: K-562 leukemia
# HCT-15 colon = tested on: HCT-15 colon
# MDA-MB-435 = tested on: MDA-MB-435
# OVCAR-4 ovarian = tested on: OVCAR-4 ovarian
# MDA-MB-231 breast = tested on: MDA-MB-231 breast
# SK-MEL-28 melanoma = tested on: SK-MEL-28 melanoma
# T-47D breast = tested on: T-47D breast
smiles,measurement,setting,value
Cc1ccc(-c2ccc(SCC(=O)Nc3ccc(Cl)c(C(F)(F)F)c3)nn2)cc1,GI50,BT-549 breast,0.829 µM
same,TGI,BT-549 breast,46.2 µM
same,GI50,SF-539 CNS,0.754 µM
same,TGI,SF-539 CNS,3.35 µM
same,GI50,RPMI-8226 leukemia,0.986 µM
same,TGI,RPMI-8226 leukemia,> 100 µM
same,GI50,IGROV1 ovarian,1.46 µM
same,TGI,IGROV1 ovarian,46.4 µM
same,GI50,A498 renal,3.75 µM
same,TGI,A498 renal,38 µM
same,GI50,MOLT-4 leukemia,0.578 µM
same,TGI,MOLT-4 leukemia,> 100 µM
same,GI50,DU-145 prostate,2.37 µM
same,TGI,DU-145 prostate,17.9 µM
same,GI50,MALME-3M melanoma,0.589 µM
same,TGI,MALME-3M melanoma,36.5 µM
same,GI50,HL-60(TB) leukemia,0.319 µM
same,TGI,HL-60(TB) leukemia,2.32 µM
same,GI50,TK-10 renal,12.7 µM
same,TGI,TK-10 renal,52.8 µM
same,GI50,HCC-2998 colon,1.29 µM
same,TGI,HCC-2998 colon,10.5 µM
same,GI50,HCT-116 colon,0.445 µM
same,TGI,HCT-116 colon,> 100 µM
same,GI50,SN12C renal,4.85 µM
same,TGI,SN12C renal,> 100 µM
same,GI50,NCI-H226 lung,8.36 µM
same,TGI,NCI-H226 lung,> 100 µM
same,GI50,RXF 393 renal,1.1 µM
same,TGI,RXF 393 renal,5.93 µM
same,GI50,NCI-H522 lung,0.528 µM
same,TGI,NCI-H522 lung,4 µM
same,GI50,UACC-62 melanoma,0.531 µM
same,TGI,UACC-62 melanoma,39.4 µM
same,GI50,A549 NSCLC,5.34 µM
same,TGI,A549 NSCLC,> 100 µM
same,GI50,786-0 renal,0.892 µM
same,TGI,786-0 renal,37.7 µM
same,GI50,SW-620 colon,0.393 µM
same,TGI,SW-620 colon,> 100 µM
same,GI50,SK-OV-3 ovarian,3.82 µM
same,TGI,SK-OV-3 ovarian,65.3 µM
same,GI50,MCF7 breast,0.563 µM
same,TGI,MCF7 breast,> 100 µM
same,GI50,HOP-92 NSCLC,2.95 µM
same,TGI,HOP-92 NSCLC,59.5 µM
same,GI50,HOP-62 NSCLC,1.23 µM
same,TGI,HOP-62 NSCLC,24.1 µM
same,GI50,SNB-19 CNS,3.21 µM
same,TGI,SNB-19 CNS,56.6 µM
same,GI50,SF-268 CNS,9.67 µM
same,TGI,SF-268 CNS,> 100 µM
same,GI50,NCI/ADR-RES ovarian,0.393 µM
same,TGI,NCI/ADR-RES ovarian,2.14 µM
same,GI50,CAKI-1 renal,1.72 µM
same,TGI,CAKI-1 renal,> 100 µM
same,GI50,MDA-MB-468 breast,0.371 µM
same,TGI,MDA-MB-468 breast,2.25 µM
same,GI50,SR leukemia,0.34 µM
same,TGI,SR leukemia,> 100 µM
same,GI50,KM12 colon,0.732 µM
same,TGI,KM12 colon,> 100 µM
same,GI50,CCRF-CEM leukemia,0.459 µM
same,TGI,CCRF-CEM leukemia,> 100 µM
same,GI50,OVCAR-3 ovarian,0.409 µM
same,TGI,OVCAR-3 ovarian,1.94 µM
same,GI50,EKVX NSCLC,2.93 µM
same,TGI,EKVX NSCLC,> 100 µM
same,GI50,NCI-H23 lung,2 µM
same,TGI,NCI-H23 lung,32.7 µM
same,GI50,OVCAR-5 ovarian,3.24 µM
same,TGI,OVCAR-5 ovarian,> 100 µM
same,GI50,HT29 colon,0.512 µM
same,TGI,HT29 colon,> 100 µM
same,GI50,UACC-257 melanoma,12.1 µM
same,TGI,UACC-257 melanoma,> 100 µM
same,GI50,HS 578T breast,1.05 µM
same,TGI,HS 578T breast,8.14 µM
same,GI50,U251 CNS,1.47 µM
same,TGI,U251 CNS,38.5 µM
same,GI50,LOX IMVI melanoma,2.48 µM
same,TGI,LOX IMVI melanoma,> 100 µM
same,GI50,SF-295 CNS,0.5 µM
same,TGI,SF-295 CNS,8.22 µM
same,GI50,NCI-H460 lung,3.22 µM
same,TGI,NCI-H460 lung,> 100 µM
same,GI50,COLO 205 colon,1.06 µM
same,TGI,COLO 205 colon,3.51 µM
same,GI50,M14 melanoma,0.538 µM
same,TGI,M14 melanoma,> 100 µM
same,GI50,SK-MEL-5 melanoma,0.435 µM
same,TGI,SK-MEL-5 melanoma,8.76 µM
same,GI50,OVCAR-8 ovarian,2.71 µM
same,TGI,OVCAR-8 ovarian,> 100 µM
same,GI50,UO-31 renal,3.16 µM
same,TGI,UO-31 renal,> 100 µM
same,GI50,ACHN renal,6.84 µM
same,TGI,ACHN renal,> 100 µM
same,GI50,PC-3 prostate,0.878 µM
same,TGI,PC-3 prostate,> 100 µM
same,GI50,K-562 leukemia,0.419 µM
same,TGI,K-562 leukemia,> 100 µM
same,GI50,HCT-15 colon,0.405 µM
same,TGI,HCT-15 colon,> 100 µM
same,GI50,MDA-MB-435,0.22 µM
same,TGI,MDA-MB-435,0.513 µM
same,GI50,OVCAR-4 ovarian,5.86 µM
same,TGI,OVCAR-4 ovarian,> 100 µM
same,GI50,MDA-MB-231 breast,1.15 µM
same,TGI,MDA-MB-231 breast,19.3 µM
same,GI50,SK-MEL-28 melanoma,5.77 µM
same,TGI,SK-MEL-28 melanoma,> 100 µM
same,GI50,T-47D breast,0.594 µM
same,TGI,T-47D breast,> 100 µM
